Measured values from patent publication US20050120398A1, “Animal model for HCV infection” (Vertex Pharmaceuticals Incorporated, priority 2003, published 2005).
Entries after “also recorded” stand apart in the source; their conditions may differ.

Assays:
[1] = test system: Ad.MT.HCVpro (mutant HCV protease fused with SEAP); assay: HCV protease mouse model: SEAP in serum, mutant HCV protease adenovirus; type: in vivo, SCID mice; settings: 300 mg/kg orally twice a day; 10^9.5 IFU/mice Ad.MT.HCVpro; serum 24 hours post-infection
[2] = test system: Wild type HCV protease; assay: Steatosis associated with HCV protease expression, Oil Red O staining of liver sections; type: in vivo, SCID mice; settings: 300 mg/kg BID oral for the initial 3 days; 10^11 IFU/mouse; sacrificed at 7 days
Experimental: FIG. 25 depicts that steatosis associated with HCV protease expression can be ameliorated by HCV protease inhibitor VX-950. SCID mice were injected with 10^11 IFU/mouse of replication defective adenovirus expressing Wild type HCV protease or mutant HCV protease or SEAP alone (n=6). One group of mice (n=6) injected with adenovirus expressing wild type HCV protease were treated with 300 mg/kg BID via oral route for the initial 3 days. All the mice were sacrificed at 7 days and liver sections were stained with Oil Red O. A significant accumulation of fat in the livers of mice expressing wild type HCV protease compared to either mutant HCV protease or SEAP alone groups (20× magnification).
1. Cryostat frozen sections of livers stored at −80° C. were tested.
2. The Oil Red O Solution was prepared as follows:
a) Stock Solution Oil Red O: 500 mg Oil red O stain (Sigma O-0625) was dissolved in 100 ml isopropanol at room temperature overnight with stirring. The solution was filtered through a #1 Whatman filter. The solution was stored at room temperature protected from light.
b) Working Oil Red Solution was prepared fresh the day of assay. 40% water was mixed with 60% Oil Red O stock by inversion.
c) The working solution was kept at room temperature for 1 hour before filtering. Particulate material was filtered out using a #1 Whatman filter paper.
3. […]
13. The results were assessed by microscopy.

[3] = test system: Ad.WT.HCVpro; assay: Liver injury in mice infected with adenovirus expressing WT HCV protease; settings: 300 mg/kg orally twice a day for the first three days; 10^11 IFU/mice; sacrificed after 7 days

Question: With `CCC[C@H](NC(=O)[C@@H]1[C@H]2CCC[C@H]2CN1C(=O)[C@@H](NC(=O)[C@@H](NC(=O)c1cnccn1)C1CCCCC1)C(C)(C)C)C(=O)C(=O)NC1CC1` [VX-950] as the compound, how does the “effect on Mutant HCV protease activity (SEAP in serum)” value [1] read?
Answer: No effect

Question: And the “amelioration of steatosis (Oil Red O staining)” value [2]?
Answer: effective at ameliorating steatosis; also recorded: ameliorated

Question: What about the “protection from liver injury (gross appearance and H&E liver pathology)” value [3] of the same compound?
Answer: protects mice from Liver injury
